This note sets out measurements from US20250092039A1, “GLUTARIMIDE-CONTAINING PAN-KRAS-MUTANT DEGRADER COMPOUNDS AND USES THEREOF” (Tiger Biotherapeutics Inc., priority 2022, published 2025).

One experiment deals with KRAS-G12V/RAF1 (Homo sapiens (Human), UniProt P01116, G12V). Description: KRAS/RAF1 binding inhibition assay (AlphaScreen). The method, boiled down: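 IC50 comes from variable-slope nonlinear fits of % inhibition (relative to DMSO) against inhibitor concentration. The AlphaScreen signal tracks the interaction of GppNHp-bound KRAS G12V with the RAF1 RBD after 60 min at 4° C with compound in 2% DMSO final.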
KRAS-G12V/RAF1, sequence (P01116-2 other isoform, or with tags, fused parts or gaps G12V): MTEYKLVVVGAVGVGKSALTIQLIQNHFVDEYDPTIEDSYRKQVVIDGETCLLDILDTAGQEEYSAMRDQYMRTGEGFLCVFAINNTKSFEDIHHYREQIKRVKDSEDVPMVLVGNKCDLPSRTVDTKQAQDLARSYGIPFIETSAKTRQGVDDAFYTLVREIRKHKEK
(In Alpha technology, singlet oxygen from a donor bead excites a nearby acceptor bead.)

A further experiment concerns the target KRAS G12V (Homo sapiens (Human), UniProt P01116, G12V). In words: KRAS G12V degradation in SW620 cells (Western blot, DC50). Format: cell-based. Conditions: 24 hours. Put shortly: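 KRAS levels were quantified by fluorescent Western blot as percent of the DMSO control after 24 h of compound exposure at 37° C in homozygous KRAS G12V SW620 cells. A four-parameter variable-slope fit of the dose-response gave the half-maximal degradation concentration.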
A general note: Immunoblotting shows a protein as a band on a membrane.

Another experiment relates to SW620 cells. In words: 3D cell growth inhibition of SW620 cells carrying endogenous KRAS G12V mutation (CellTiter-Glo 3D, GI50). Format: cell-based. To be noted: SW620 cells, 6 days, read-out: SW620 3D cell growth GI50. How it is done: The following day, the test compound was administered to the cells by using 1000× compound stock solution prepared in DMSO at various concentrations. 1000× compound stock solution was first diluted in culturing medium to 10×, then 10 μL compound medium was added to each well in the cell plates. After administration of the compound, the cells were then incubated at 37° C. for 6 days. Upon completion, the plates were equilibrated at room temperature for approximately 10 minutes. 100 μL of CellTiter-Glo® 3D Reagent (Promega) was added to each well. The plates were then incubated at room temperature for 30 minutes and luminescence was recorded by EnSpire plate reader (PerkinElmer).
(In general: ATP-based viability assays read luminescence as a measure of living cells.)

Like-named read-outs stand apart in the source and are kept apart here.

As usually defined, the IC50 is the concentration that inhibits the measured activity by half. Low values mean higher potency, high ones lower potency. What is called DC50 is the concentration at which degradation of the target reaches its halfway point. A low value points to degradation at low concentration. A word on the GI50: it is the concentration at which growth is held to half of that of the control.

KRAS G12V, sequence (P01116-2 other isoform, or with tags, fused parts or gaps G12V): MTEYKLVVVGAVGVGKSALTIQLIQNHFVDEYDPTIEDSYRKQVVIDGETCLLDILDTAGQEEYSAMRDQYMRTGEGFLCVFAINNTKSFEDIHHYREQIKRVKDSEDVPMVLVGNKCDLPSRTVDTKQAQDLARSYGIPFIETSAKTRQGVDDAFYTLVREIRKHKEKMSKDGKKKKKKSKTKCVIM

For the molecule `CCc1cccc2cc(O)cc(-c3ncc4c(N5CCC[C@@](C)(O)C5)nc(OCC5(CN6CCC7(CC6)CC(N6CCN(c8ccc9c(c8)CN([C@H]8CCC(=O)NC8=O)C9=O)CC6)C7)CC5)nc4c3F)c12` [Compound 138, (3S)-3-[5-[4-[7-[[1-[[7-(8-ethyl-3-hydroxy-1-naphthyl)-8-fluoro-4-[(3R)-3-hydroxy-3-methyl-1-piperidyl]pyrido[4,3-d]pyrimidin-2-yl]oxymethyl]cyclopropyl]methyl]-7-azaspiro[3.5]nonan-2-yl]piperazin-1-yl]-1-oxo-isoindolin-2-yl]piperidine-2,6-dione], the IC50 on KRAS-G12V/RAF1 was in the range of 20 to 200 nM. Moreover, the half-maximal degradation concentration (DC50) on KRAS G12V is under 1 nM. Moreover, the GI50 in the experiment on SW620 cells (Homo sapiens, SW-620, 144 h) is under 10 nM.
For `CCc1c(F)ccc2cc(O)cc(-c3ncc4c(N5CCC(O)CC5)nc(OCC5(CN6CCC7(CC6)CC(CN6CCN(c8ccc9c(c8)CN([C@H]8CCC(=O)NC8=O)C9=O)CC6)C7)CC5)nc4c3F)c12` [Compound 114, (S)-3-(5-(4-((7-((1-(((7-(8-ethyl-7-fluoro-3-hydroxynaphthalen-1-yl)-8-fluoro-4-(4-hydroxypiperidin-1-yl)pyrido[4,3-d]pyrimidin-2-yl)oxy)methyl)cyclopropyl)methyl)-7-azaspiro[3.5]nonan-2-yl)methyl)piperazin-1-yl)-1-oxoisoindolin-2-yl)piperidine-2,6-dione], in that order: over 200 nM, over 100 nM and over 100 nM.
For `CCc1c(F)ccc2cc(O)cc(-c3ncc4c(N5CCC[C@@](C)(O)C5)nc(OCC5(CN6CC(CN7CCC(N8CCN(c9ccc%10c(c9)CN([C@H]9CCC(=O)NC9=O)C%10=O)CC8)CC7)C6)CC5)nc4c3F)c12` [Compound 149, (S)-3-(5-(4-(1-((1-((1-(((7-(8-ethyl-7-fluoro-3-hydroxynaphthalen-1-yl)-8-fluoro-4-((R)-3-hydroxy-3-methylpiperidin-1-yl)pyrido[4,3-d]pyrimidin-2-yl)oxy)methyl)cyclopropyl)methyl)azetidin-3-yl)methyl)piperidin-4-yl)piperazin-1-yl)-1-oxoisoindolin-2-yl)piperidine-2,6-dione], in that order: 20 to 200 nM, over 100 nM and 10 to 100 nM.
For `CCc1cccc2cc(O)cc(-c3ncc4c(N5CCC[C@@](C)(O)C5)nc(OCC5(CN6CCC7(CC6)CCN(c6ccc8c(c6)CN(C6CCC(=O)NC6=O)C8=O)CC7)CC5)nc4c3F)c12` (stereo partly drawn) [Compound 140, 3-(5-(9-((1-(((7-(8-ethyl-3-hydroxynaphthalen-1-yl)-8-fluoro-4-((R)-3-hydroxy-3-methylpiperidin-1-yl)pyrido[4,3-d]pyrimidin-2-yl)oxy)methyl)cyclopropyl)methyl)-3,9-diazaspiro[5.5]undecan-3-yl)-1-oxoisoindolin-2-yl)piperidine-2,6-dione], in that order: 20 to 200 nM, under 1 nM and under 10 nM.
Molecule `CCc1c(F)ccc2cc(O)cc(-c3ncc4c(N5CCC[C@@](C)(O)C5)nc(OCC5(CN6CCC(N7CC8(CCN(c9cc(F)c(C%10CCC(=O)NC%10=O)c(F)c9)CC8)C7)CC6)CC5)nc4c3F)c12` (stereo partly drawn) [Compound 57, 3-(4-(2-(1-((1-(((7-(8-ethyl-7-fluoro-3-hydroxynaphthalen-1-yl)-8-fluoro-4-((R)-3-hydroxy-3-methylpiperidin-1-yl)pyrido[4,3-d]pyrimidin-2-yl)oxy)methyl)cyclopropyl)methyl)piperidin-4-yl)-2,7-diazaspiro[3.5]nonan-7-yl)-2,6-difluorophenyl)piperidine-2,6-dione] returned an IC50 at KRAS-G12V/RAF1 of under 20 nM. Moreover, the DC50 on KRAS G12V lay in the range of 1 to 10 nM. For the same molecule, the GI50 in the experiment on SW620 cells (Homo sapiens, SW-620, 144 h) was under 10 nM.
In turn, `CCc1cccc2cc(O)cc(-c3ncc4c(N5CCC[C@@](C)(O)C5)nc(OCC5(CN6CC7(CCN(c8ccc9c(c8)CN(C8CCC(=O)NC8=O)C9=O)CC7)C6)CC5)nc4c3F)c12` (stereo partly drawn) [Compound 16, 3-(5-(2-((1-(((7-(8-ethyl-3-hydroxynaphthalen-1-yl)-8-fluoro-4-((R)-3-hydroxy-3-methylpiperidin-1-yl)pyrido[4,3-d]pyrimidin-2-yl)oxy)methyl)cyclopropyl)methyl)-2,7-diazaspiro[3.5]nonan-7-yl)-1-oxoisoindolin-2-yl)piperidine-2,6-dione] yielded an IC50 at KRAS-G12V/RAF1 of 20 to 200 nM. At KRAS G12V, the DC50 was over 100 nM. Further, the GI50 with SW620 cells (Homo sapiens, SW-620, 144 h) is over 100 nM.
As to `CCc1c(F)ccc2cc(O)cc(-c3ncc4c(N5CCC[C@@](C)(O)C5)nc(OCC5(CN6CCC(C)(CN7CCN(c8ccc9c(c8)CN([C@@H]8CCC(=O)NC8=O)C9=O)CC7)CC6)CC5)nc4c3F)c12` [Compound 63, (R)-3-(5-(4-((1-((1-(((7-(8-ethyl-7-fluoro-3-hydroxynaphthalen-1-yl)-8-fluoro-4-((R)-3-hydroxy-3-methylpiperidin-1-yl)pyrido[4,3-d]pyrimidin-2-yl)oxy)methyl)cyclopropyl)methyl)-4-methylpiperidin-4-yl)methyl)piperazin-1-yl)-1-oxoisoindolin-2-yl)piperidine-2,6-dione], the IC50 on KRAS-G12V/RAF1 fell in the range of 20 to 200 nM. The molecule further registered a DC50 on KRAS G12V of 1 to 10 nM. In the experiment on SW620 cells (Homo sapiens, SW-620, 144 h), the GI50 was under 10 nM.
For `CCc1c(F)ccc2cc(O)cc(-c3ncc4c(N5CCC[C@@](C)(O)C5)nc(OCC5(CN6CC7(CCC(CN8CCN(c9ccc%10c(c9)CN([C@H]9CCC(=O)NC9=O)C%10=O)CC8)CC7)C6)CC5)nc4c3F)c12` [Compound 126, (3S)-3-[5-[4-[[2-[[1-[[7-(8-ethyl-7-fluoro-3-hydroxy-1-naphthyl)-8-fluoro-4-[(3R)-3-hydroxy-3-methyl-1-piperidyl]pyrido[4,3-d]pyrimidin-2-yl]oxymethyl]cyclopropyl]methyl]-2-azaspiro[3.5]nonan-7-yl]methyl]piperazin-1-yl]-1-oxo-isoindolin-2-yl]piperidine-2,6-dione], in that order: 20 to 200 nM, 1 to 10 nM and under 10 nM.
Consider `C[C@@]1(O)CCCN(c2nc(OCC3(CN4CC5(CCC(F)(CN6CCN(c7ccc8c(c7)CN([C@H]7CCC(=O)NC7=O)C8=O)CC6)CC5)C4)CC3)nc3c(F)c(-c4cc(O)cc5ccc(F)c(F)c45)ncc23)C1` [Compound 177, (S)-3-(5-(4-((2-((1-(((7-(7,8-difluoro-3-hydroxynaphthalen-1-yl)-8-fluoro-4-((R)-3-hydroxy-3-methylpiperidin-1-yl)pyrido[4,3-d]pyrimidin-2-yl)oxy)methyl)cyclopropyl)methyl)-7-fluoro-2-azaspiro[3.5]nonan-7-yl)methyl)piperazin-1-yl)-1-oxoisoindolin-2-yl)piperidine-2,6-dione], for which the IC50 on KRAS-G12V/RAF1 was over 200 nM. This molecule showed a DC50 at KRAS G12V of over 100 nM. For the same molecule, in the experiment with SW620 cells (Homo sapiens, SW-620, 144 h), the GI50 lay within 10 to 100 nM.
Turning to `CCc1cccc2cc(O)cc(-c3ncc4c(N5CCC[C@@](C)(O)C5)nc(OCC5(CN6CC7(CCC(N8CCN(c9ccc%10c(c9)CN([C@H]9CCC(=O)NC9=O)C%10=O)CC8)CC7)C6)CC5)nc4c3F)c12` [Compound 142, (S)-3-(5-(4-(2-((1-(((7-(8-ethyl-3-hydroxynaphthalen-1-yl)-8-fluoro-4-((R)-3-hydroxy-3-methylpiperidin-1-yl)pyrido[4,3-d]pyrimidin-2-yl)oxy)methyl)cyclopropyl)methyl)-2-azaspiro[3.5]nonan-7-yl)piperazin-1-yl)-1-oxoisoindolin-2-yl)piperidine-2,6-dione], the IC50 on KRAS-G12V/RAF1 is 20 to 200 nM. Also, the DC50 on KRAS G12V is 1 to 10 nM. In the experiment with SW620 cells, the GI50 was over 100 nM.
As to `C[C@@]1(O)CCCN(c2nc(OCC3(CN4CC(N5CC(N6CCN(c7ccc8c(c7)CN([C@H]7CCC(=O)NC7=O)C8=O)CC6)C5)C4)CC3)nc3c(F)c(-c4cc(O)cc5ccc(F)c(F)c45)ncc23)C1` [Compound 169, (S)-3-(5-(4-(1′-((1-(((7-(7,8-difluoro-3-hydroxynaphthalen-1-yl)-8-fluoro-4-((R)-3-hydroxy-3-methylpiperidin-1-yl)pyrido[4,3-d]pyrimidin-2-yl)oxy)methyl)cyclopropyl)methyl)-[1,3′-biazetidin]-3-yl)piperazin-1-yl)-1-oxoisoindolin-2-yl)piperidine-2,6-dione], on KRAS-G12V/RAF1, the IC50 lay within 20 to 200 nM. This molecule also showed a DC50 at KRAS G12V of over 100 nM. The GI50 in the experiment with SW620 cells (Homo sapiens, SW-620, 144 h) was over 100 nM.
Turning to `CCc1cccc2cc(O)cc(-c3ncc4c(N5CCC[C@@](C)(O)C5)nc(OCC5(CN6CCC7(CC6)CC(CN6CCN(c8ccc9c(c8)C(=O)N(C8CCC(=O)NC8=O)C9=O)CC6)C7)CC5)nc4c3F)c12` (stereo partly drawn) [Compound 32, 2-(2,6-dioxopiperidin-3-yl)-5-(4-((7-((1-(((7-(8-ethyl-3-hydroxynaphthalen-1-yl)-8-fluoro-4-((R)-3-hydroxy-3-methylpiperidin-1-yl)pyrido[4,3-d]pyrimidin-2-yl)oxy)methyl)cyclopropyl)methyl)-7-azaspiro[3.5]nonan-2-yl)methyl)piperazin-1-yl)isoindoline-1,3-dione], the IC50 at KRAS-G12V/RAF1 lay within 20 to 200 nM. At KRAS G12V, the DC50 lay within 1 to 10 nM. In the experiment with SW620 cells (Homo sapiens, SW-620, 144 h), the GI50 is under 10 nM.
